Results from ChEMBL document CHEMBL4622877, “Aspeterreurone A, a Cytotoxic Dihydrobenzofuran-Phenyl Acrylate Hybrid from the Deep-Sea-Derived Fungus Aspergillus terreus CC-S06-18” (J Nat Prod, 2020).
Blank lines part the entries; values can stand above or below the molecule they belong to. Calls of active or inactive are those of the source. No cut-off for these calls is given here.

What was measured:
BGC-823 = assay: Cytotoxicity against human BGC823 cells after 72 hrs by CCK8 assay; format: functional, cell-based; conditions: for IC50: BGC-823, 72 h
MGC-803 [1] = assay: Cytotoxicity against human MGC803 cells after 72 hrs by CCK8 assay; format: functional, cell-based; conditions: for IC50: MGC-803, 72 h
GES1 = assay: Cytotoxicity against human GES-1 cells after 72 hrs by CCK8 assay; format: cell-based; conditions: GES1, 72 h
HGC-27 = assay: Cytotoxicity against human HGC27 cells after 72 hrs by CCK8 assay; format: functional, cell-based; conditions: for IC50: HGC-27, 72 h
AGS = assay: Cytotoxicity against human AGS cells after 72 hrs by CCK8 assay; format: functional, cell-based
MGC-803 [2] = assay: Induction of cell cycle arrest in human MGC803 cells assessed as accumulation of cells at G2/M phase at 10 uM incubated for 24 hrs propidium iodide-A staining-based flow cytometric analysis (reference value: 31%); format: functional
MGC-803 [3] = assay: Induction of apoptosis in human MGC803 cells assessed as early apoptotic cells at 5 uM incubated for 48 hrs by Annexin V-FITC/propidium iodide staining-based flow cytometric analysis (reference value: 1.83%); format: functional
MGC-803 [4] = assay: Induction of apoptosis in human MGC803 cells assessed as necrotic cells at 2 uM incubated for 48 hrs by Annexin V-FITC/propidium iodide staining-based flow cytometric analysis (reference value: 0.18%); format: functional
MGC-803 [5] = assay: Induction of cell cycle arrest in human MGC803 cells assessed as accumulation of cells at S phase at 2 uM incubated for 24 hrs propidium iodide-A staining-based flow cytometric analysis (reference value: 17%); format: functional
[6] = biological target: Signal transducer and activator of transcription 3 (Homo sapiens) (UniProt P40763); assay: Inhibition of STAT3 phosphorylation in human MGC803 cells at 2 to 20 uM incubated for 24 hrs by Western blot analysis; format: cell-based; conditions: MGC-803
Sequence of Signal transducer and activator of transcription 3 (Homo sapiens) (P40763 whole entry): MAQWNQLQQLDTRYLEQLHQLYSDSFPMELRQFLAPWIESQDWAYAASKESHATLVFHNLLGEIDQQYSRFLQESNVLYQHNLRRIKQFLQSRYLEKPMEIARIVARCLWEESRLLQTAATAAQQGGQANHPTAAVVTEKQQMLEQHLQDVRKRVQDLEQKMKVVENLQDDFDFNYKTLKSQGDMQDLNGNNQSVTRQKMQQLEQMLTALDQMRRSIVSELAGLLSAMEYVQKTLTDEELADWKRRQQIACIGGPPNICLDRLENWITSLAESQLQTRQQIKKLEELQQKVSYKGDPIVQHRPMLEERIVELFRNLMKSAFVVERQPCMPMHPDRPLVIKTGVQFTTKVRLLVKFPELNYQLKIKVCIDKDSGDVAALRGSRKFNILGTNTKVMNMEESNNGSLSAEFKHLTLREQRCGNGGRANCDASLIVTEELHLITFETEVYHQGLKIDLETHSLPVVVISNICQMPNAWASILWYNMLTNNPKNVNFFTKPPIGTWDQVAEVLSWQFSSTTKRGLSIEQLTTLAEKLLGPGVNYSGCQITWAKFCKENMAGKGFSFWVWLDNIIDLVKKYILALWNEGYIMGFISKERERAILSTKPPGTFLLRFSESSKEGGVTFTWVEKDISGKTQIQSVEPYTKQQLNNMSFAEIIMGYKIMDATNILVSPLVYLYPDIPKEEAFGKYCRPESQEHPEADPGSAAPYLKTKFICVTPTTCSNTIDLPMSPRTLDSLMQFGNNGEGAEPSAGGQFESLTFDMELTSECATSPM

MGC-803 [7] = assay: Induction of apoptosis in human MGC803 cells assessed as early apoptotic cells at 20 uM incubated for 48 hrs by Annexin V-FITC/propidium iodide staining-based flow cytometric analysis (reference value: 1.83%); format: functional
MGC-803 [8] = assay: Induction of apoptosis in human MGC803 cells assessed as late apoptotic cells at 2 uM incubated for 48 hrs by Annexin V-FITC/propidium iodide staining-based flow cytometric analysis (reference value: 0.84%); format: functional
MGC-803 [9] = assay: Induction of apoptosis in human MGC803 cells assessed as viable cells at 5 uM incubated for 48 hrs by Annexin V-FITC/propidium iodide staining-based flow cytometric analysis (reference value: 97.15%); format: functional; conditions: MGC-803, 48 h, read-out: Activity
MGC-803 [10] = assay: Induction of cell cycle arrest in human MGC803 cells assessed as accumulation of cells at S phase at 10 uM incubated for 24 hrs propidium iodide-A staining-based flow cytometric analysis (reference value: 17%); format: functional
MGC-803 [11] = assay: Induction of apoptosis in human MGC803 cells assessed as PARP cleavage at 20 uM incubated for 24 hrs by Western blot analysis; format: functional, cell-based
MGC-803 [12] = assay: Induction of apoptosis in human MGC803 cells assessed as early apoptotic cells at 2 uM incubated for 48 hrs by Annexin V-FITC/propidium iodide staining-based flow cytometric analysis (reference value: 1.83%); format: functional
MGC-803 [13] = assay: Effect on total STAT3 expression in human MGC803 cells at 20 uM incubated for 24 hrs by Western blot analysis; format: cell-based; conditions: mgc-803, 24 h
MGC-803 [14] = assay: Induction of apoptosis in human MGC803 cells assessed as necrotic cells at 5 uM incubated for 48 hrs by Annexin V-FITC/propidium iodide staining-based flow cytometric analysis (reference value: 0.18%); format: functional
MGC-803 [15] = assay: Induction of apoptosis in human MGC803 cells assessed as necrotic cells at 10 uM incubated for 48 hrs by Annexin V-FITC/propidium iodide staining-based flow cytometric analysis (reference value: 0.18%); format: functional
MGC-803 [16] = assay: Induction of cell cycle arrest in human MGC803 cells assessed as accumulation of cells at G1 phase at 2 uM incubated for 24 hrs propidium iodide-A staining-based flow cytometric analysis (reference value: 52%); format: functional
MGC-803 [17] = assay: Induction of apoptosis in human MGC803 cells assessed as late apoptotic cells at 10 uM incubated for 48 hrs by Annexin V-FITC/propidium iodide staining-based flow cytometric analysis (reference value: 0.84%); format: functional
MGC-803 [18] = assay: Induction of cell cycle arrest in human MGC803 cells assessed as accumulation of cells at G1 phase at 20 uM incubated for 24 hrs propidium iodide-A staining-based flow cytometric analysis (reference value: 52%); format: functional
MGC-803 [19] = assay: Induction of apoptosis in human MGC803 cells assessed as viable cells at 2 uM incubated for 48 hrs by Annexin V-FITC/propidium iodide staining-based flow cytometric analysis (reference value: 97.15%); format: functional; conditions: MGC-803, 48 h, read-out: Activity
MGC-803 [20] = assay: Induction of cell cycle arrest in human MGC803 cells assessed as accumulation of cells at G2/M phase at 2 uM incubated for 24 hrs propidium iodide-A staining-based flow cytometric analysis (reference value: 31%); format: functional
MGC-803 [21] = assay: Induction of cell cycle arrest in human MGC803 cells assessed as accumulation of cells at G2/M phase at 20 uM incubated for 24 hrs propidium iodide-A staining-based flow cytometric analysis (reference value: 31%); format: functional
MGC-803 [22] = assay: Induction of cell cycle arrest in human MGC803 cells assessed as accumulation of cells at G1 phase at 10 uM incubated for 24 hrs propidium iodide-A staining-based flow cytometric analysis (reference value: 52%); format: functional
MGC-803 [23] = assay: Induction of cell cycle arrest in human MGC803 cells assessed as accumulation of cells at S phase at 20 uM incubated for 24 hrs propidium iodide-A staining-based flow cytometric analysis (reference value: 17%); format: functional
MGC-803 [24] = assay: Induction of cell cycle arrest in human MGC803 cells assessed as accumulation of cells at G2/M phase at 5 uM incubated for 24 hrs propidium iodide-A staining-based flow cytometric analysis (reference value: 31%); format: functional
MGC-803 [25] = assay: Induction of apoptosis in human MGC803 cells assessed as viable cells at 20 uM incubated for 48 hrs by Annexin V-FITC/propidium iodide staining-based flow cytometric analysis (reference value: 97.15%); format: functional; conditions: MGC-803, 48 h, read-out: Activity
MGC-803 [26] = assay: Induction of cell cycle arrest in human MGC803 cells assessed as accumulation of cells at G1 phase at 5 uM incubated for 24 hrs propidium iodide-A staining-based flow cytometric analysis (reference value: 52%); format: functional
MGC-803 [27] = assay: Induction of apoptosis in human MGC803 cells assessed as early apoptotic cells at 10 uM incubated for 48 hrs by Annexin V-FITC/propidium iodide staining-based flow cytometric analysis (reference value: 1.83%); format: functional
MGC-803 [28] = assay: Induction of apoptosis in human MGC803 cells assessed as late apoptotic cells at 5 uM incubated for 48 hrs by Annexin V-FITC/propidium iodide staining-based flow cytometric analysis (reference value: 0.84%); format: functional
MGC-803 [29] = assay: Induction of apoptosis in human MGC803 cells assessed as viable cells at 10 uM incubated for 48 hrs by Annexin V-FITC/propidium iodide staining-based flow cytometric analysis (reference value: 97.15%); format: functional; conditions: MGC-803, 48 h, read-out: Activity
MGC-803 [30] = assay: Induction of apoptosis in human MGC803 cells assessed as late apoptotic cells at 20 uM incubated for 48 hrs by Annexin V-FITC/propidium iodide staining-based flow cytometric analysis (reference value: 0.84%); format: functional
MGC-803 [31] = assay: Induction of cell cycle arrest in human MGC803 cells assessed as accumulation of cells at S phase at 5 uM incubated for 24 hrs propidium iodide-A staining-based flow cytometric analysis (reference value: 17%); format: functional
MGC-803 [32] = assay: Induction of apoptosis in human MGC803 cells assessed as necrotic cells at 20 uM incubated for 48 hrs by Annexin V-FITC/propidium iodide staining-based flow cytometric analysis (reference value: 0.18%); format: functional

Structure (SMILES): CC(=O)O[C@H]1C(=O)[C@@]2(C)[C@H]([C@H](OC(=O)c3ccccc3)[C@]3(O)C[C@H](OC(=O)[C@H](O)[C@@H](NC(=O)c4ccccc4)c4ccccc4)C(C)=C1C3(C)C)[C@]1(OC(C)=O)CO[C@@H]1C[C@@H]2O [PACLITAXEL]
IC50 (BGC-823): 0.0013 µM
IC50 (MGC-803 [1]): 0.0038 µM
IC50 (GES1): 0.0079 µM
IC50 (HGC-27): 0.0084 µM
IC50 (AGS): 0.053 µM

inhibition [6]: Active
Structure (SMILES): Cc1c2c(c(O)c3c1[C@H](C)[C@@H](C)O3)/C(=C/c1ccccc1)C(=O)O2
Activity (BGC-823): Dose-dependent effect
IC50 (BGC-823): 6.2 µM
Activity (MGC-803 [2]): 33%
Activity (MGC-803 [3]): 0.78%
Activity (MGC-803 [4]): 0.54%
Activity (MGC-803 [5]): 16%
Activity (MGC-803 [7]): 7.57%
Activity (MGC-803 [8]): 0.34%
viability at 5 µM (MGC-803 [9]): 98.7%
Activity (MGC-803 [1]): Dose-dependent effect
IC50 (MGC-803 [1]): 7 µM
Activity (MGC-803 [10]): 18%
Activity (MGC-803 [11]): Active
Activity (MGC-803 [12]): 0.72%
IC50 (GES1): 29 µM
Activity (MGC-803 [13]): Toxic
Activity (HGC-27): Dose-dependent effect
IC50 (HGC-27): 3.4 µM
Activity (MGC-803 [14]): 0.26%
Activity (MGC-803 [15]): 0.59%
Activity (MGC-803 [16]): 50%
Activity (MGC-803 [17]): 0.39%
Activity (MGC-803 [18]): 53%
viability at 2 µM (MGC-803 [19]): 98.4%
Activity (MGC-803 [20]): 34%
Activity (AGS): Dose-dependent effect
IC50 (AGS): 8.2 µM
Activity (MGC-803 [21]): 24%
Activity (MGC-803 [22]): 49%
Activity (MGC-803 [23]): 23%
Activity (MGC-803 [24]): 36%
viability at 20 µM (MGC-803 [25]): 89.4%
Activity (MGC-803 [26]): 48%
Activity (MGC-803 [27]): 1.95%
Activity (MGC-803 [28]): 0.24%
viability at 10 µM (MGC-803 [29]): 97.1%
Activity (MGC-803 [30]): 1.51%
Activity (MGC-803 [31]): 16%
Activity (MGC-803 [32]): 1.55%
